Measurements published in patent publication US20260250318A1, “COMPOSITIONS AND METHODS FOR CROSSING THE BLOOD BRAIN BARRIER” (VOYAGER THERAPEUTICS, INC., priority 2022, published 2026).

Tests used:
Settings in all cases: synthetic library passage 3, intravenous, relative to wild-type AAV9
[1] = tested on: brain, spinal cord, and DRG of the NHPs; test: NGS fold enrichment of synthetic library (passage 3) in NHPs, first cross-species screen; assay type: in vivo, cynomolgus macaques (Macaca fascicularis)
Procedure: (§1) After creation of the synthetic library with the sub-selected variants, the synthetic library was screened (passage 3) in two NHPs (2-4 years of age) and two strains of mice, BALB/c (n=3, 6-8 weeks of age) and C57Bl/6 mice (n=3, 6-8 weeks of age), in a first cross-species evolution screen. The animals were injected intravenously with the synthetic library. After a period in vivo, (e.g., 28-days) RNA was extracted from nervous tissue, e.g., brain, spinal cord, and DRG of the NHPs and the brains of mice. Following RNA recovery and RT-PCR amplification, a systematic NGS enrichment analysis was performed, and the peptides comprised within the variants were identified and the capsid enrichment ratio for each variant compared to the wild-type AAV9 control was calculated (fold enrichment relative to wild-type AAV9) (Table 9). […] All animals were dosed intravenously at […] across the screen.

brain [2] = test: NGS fold enrichment of synthetic library (passage 3) in BALB/c mice, first cross-species screen; assay type: in vivo
Procedure: as §1

brain [3] = test: NGS fold enrichment of synthetic library (passage 3) in C57Bl/6 mice, first cross-species screen; assay type: in vivo
Procedure: as §1

[4] = RNA from spinal cord of NHPs, NGS
[5] = RNA from brain of BALB/c mice, NGS
[6] = RNA from brain of C57Bl/6 mice, NGS

Sequence	Fold enrichment over AAV9 in the brain of NHPs ([1]; RNA NGS, brain of NHPs) [fold]	Fold enrichment over AAV9 in the spinal cord of NHPs ([1]; RNA NGS, spinal cord of NHPs) [fold]	Fold enrichment over AAV9 in the brain of Mice (BALB/c) (brain [2]; RNA NGS, brain of BALB/c mice) [fold]	Fold enrichment over AAV9 in the brain of Mice (C57Bl/6) (brain [3]; RNA NGS, brain of C57Bl/6 mice) [fold]	Fold enrichment over AAV9 in the brain of NHPs ([1]; RNA from brain of NHPs, NGS) [fold]	Fold enrichment over AAV9 in the spinal cord of NHPs [1, 4] [fold]	Fold enrichment over AAV9 in the brain of Mice (BALB/c) (brain [2]; [5]) [fold]	Fold enrichment over AAV9 in the brain of Mice (C57Bl/6) (brain [3]; [6]) [fold]
GGAGSAHSGQNQQT	1.003	6.108	1.092	0.474				
GGGDLGRSSQNQQT	3.036	4.830	0.539	0.916				
GGGPMAGSGQNQQT	1.735	2.815	0.372	1.049				
GGGTKMDSGQNQQT	3.034	0.000	0.297	0.733				
GGITWTDSGQNQQT	1.462	4.535	0.468	1.472				
GGLGSMSSGQNQQT	2.812	1.405	0.822	1.802				
GGLSHVMSGQNQQT	1.875	0.403	0.378	0.885				
GGQVAPSSGQNQQT	2.581	2.427	0.709	1.433				
GGRIVSLSGQNQQT	1.766	4.936	0.847	1.161				
GGRNGHTVGQNQQT	2.965	3.732	1.003	1.105				
GGSHTYGGGQNQQT					1.241	13.065	0.730	0.982
GGTRVVDSGQNQQT	1.676	9.735	0.370	0.676				
GGVLVGGSGQNQQT	2.778	0.178	0.688	1.527				
GGYHSQTSGQNQQT	1.978	2.642	1.525	1.740				
GHAGSTGSGQNQQT					1.352	2.829	1.233	1.332
GHAHYQASGQNQQT					1.377	7.299	0.745	0.803
